By IC50 is commonly meant the concentration needed to halve the response being measured.

Where only a bound is given, the exact number is not on record here.

Among the data in patent US10519134B2, “Pyrazole compounds and methods of making and using same” (Lundbeck La Jolla Research Center, Inc., priority 2015, dated 2019) are inhibition and IC50 values, retold here.

What all share (type): biochemical
The target in assay [1] is T1, MAGL (Mus musculus, UniProt O35678).
T1 construct: Proteomes (mouse brain membrane fraction or cell lysates); from tissue; host or cells: mouse brain membrane fraction (or cell lysates)
T1 sequence (O35678 1-303): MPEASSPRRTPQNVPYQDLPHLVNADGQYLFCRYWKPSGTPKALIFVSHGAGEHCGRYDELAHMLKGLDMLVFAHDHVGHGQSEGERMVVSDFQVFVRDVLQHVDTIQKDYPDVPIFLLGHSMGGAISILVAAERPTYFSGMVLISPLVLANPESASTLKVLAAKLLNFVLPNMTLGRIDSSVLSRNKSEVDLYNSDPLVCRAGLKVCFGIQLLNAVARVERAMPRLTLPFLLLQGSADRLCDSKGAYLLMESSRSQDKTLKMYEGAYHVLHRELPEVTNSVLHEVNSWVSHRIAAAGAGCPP
The assay can be described thus: In vitro competitive activity-based protein profiling (mouse), MAGL gel band. The note with it: read-out: MAGL % inh. 1 μM. The procedure, abridged:
(§1)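 Residual enzyme activity is taken from in-gel fluorescence after SDS-PAGE. Proteome from mouse brain membranes or cell lysates (total protein 1.0 mg/mL) sees inhibitor for 30 min, then FP-Rh or HT-01 probe (50 μM DMSO stock) for 30 min, both steps at 37 °C.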

Assay [2] deals with T2, MAGL (Homo sapiens, UniProt Q99685).
T2 construct: Proteomes (human prefrontal cortex or cell membrane fractions); from tissue; host or cells: human prefrontal cortex (or cell membrane fractions)
T2 sequence (Q99685 1-303): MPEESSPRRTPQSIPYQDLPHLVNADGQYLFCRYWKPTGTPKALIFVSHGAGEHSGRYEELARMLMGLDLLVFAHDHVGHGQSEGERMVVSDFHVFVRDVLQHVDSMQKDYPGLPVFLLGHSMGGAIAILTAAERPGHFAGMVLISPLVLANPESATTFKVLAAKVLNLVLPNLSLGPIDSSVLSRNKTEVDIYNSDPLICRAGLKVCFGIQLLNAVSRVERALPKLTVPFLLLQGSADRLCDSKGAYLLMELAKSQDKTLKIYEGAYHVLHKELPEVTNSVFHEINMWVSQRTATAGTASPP
Briefly: In vitro competitive activity-based protein profiling (human), MAGL gel band. Here is the method: In Vitro Competitive Activity-Based Protein Profiling (Human).
Proteomes (human prefrontal cortex or cell membrane fractions) (50 μL, 1.0-2.0 mg/mL total protein concentration) were preincubated with varying concentrations of inhibitors at 37° C. After 30 min, FP-Rh or JW912 (1.0 μL, 50 μM in DMSO) was added and the mixture was incubated for another 30 min at room temperature. Reactions were quenched with SDS loading buffer (15 μL—4×) and run on SDS-PAGE. Following gel imaging, serine hydrolase activity was determined by measuring fluorescent intensity of gel bands corresponding to MAGL using ImageJ 1.49k software.

The target of a further assay is T3, FAAH (Mus musculus, UniProt O08914).
T3 construct: Proteomes (mouse brain membrane fraction or cell lysates); from tissue; host or cells: mouse brain membrane fraction (or cell lysates)
T3 sequence (O08914 1-579): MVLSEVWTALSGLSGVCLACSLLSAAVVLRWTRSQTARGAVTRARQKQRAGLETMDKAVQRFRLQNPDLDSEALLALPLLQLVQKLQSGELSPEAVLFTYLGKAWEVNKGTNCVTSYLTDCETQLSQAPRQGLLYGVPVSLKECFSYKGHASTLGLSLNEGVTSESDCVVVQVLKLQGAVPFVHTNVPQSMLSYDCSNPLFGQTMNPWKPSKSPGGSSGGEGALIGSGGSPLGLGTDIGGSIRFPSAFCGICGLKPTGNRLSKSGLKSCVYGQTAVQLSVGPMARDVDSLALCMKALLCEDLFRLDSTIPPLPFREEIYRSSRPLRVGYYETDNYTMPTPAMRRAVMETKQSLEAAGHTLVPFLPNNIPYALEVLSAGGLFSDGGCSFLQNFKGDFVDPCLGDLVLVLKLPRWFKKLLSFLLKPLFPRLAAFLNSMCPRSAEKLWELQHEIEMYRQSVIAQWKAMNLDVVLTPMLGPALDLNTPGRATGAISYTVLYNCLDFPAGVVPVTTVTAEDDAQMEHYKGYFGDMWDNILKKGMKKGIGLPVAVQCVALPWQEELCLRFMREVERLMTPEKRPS
Briefly: In vitro competitive activity-based protein profiling (mouse), FAAH gel band. The note with it: read-out: FAAH % inh. 1 μM. The method, boiled down: as §1

In the case of `CS(=O)(=O)Nc1ccn(C(=O)N2CCN(Cc3cc(N4CCCC4)ccc3Cl)CC2)n1` [Example 194, N-(1-(4-(2-chloro-5-(pyrrolidin-1-yl)benzyl)piperazine-1-carbonyl)-1H-pyrazol-3-yl) methanesulfonamide], the inhibition at 1 µM was not below 75% at MAGL [1] and 0 to 25% on FAAH. Besides, the concentration for half-maximal inhibition (IC50) on MAGL [2] fell in the range of 100 to 1000 nM.

Turning to `CS(=O)(=O)Nc1ccn(C(=O)N2CCN(Cc3ccc(C(F)(F)F)cc3N3CCC(F)CC3)CC2)n1` [Example 196, N-(1-(4-(2-(4-fluoropiperidin-1-yl)-4-(trifluoromethyl)benzyl)piperazine-1-carbonyl)-1H-pyrazol-3-yl) methanesulfonamide], the results for the inhibition at 1 µM at MAGL [1] and at FAAH were not below 75% and 0 to 25%, respectively. Besides, the IC50 at MAGL [2] was not above 100 nM.

As to `CS(=O)(=O)Nc1ccn(C(=O)N2CCC3(CCCN3Cc3ccc(C(F)(F)F)cc3Cl)CC2)n1` [Example 197, N-(1-(1-(2-chloro-4-(trifluoromethyl)benzyl)-1,8-diazaspiro[4.5]decane-8-carbonyl)-1H-pyrazol-3-yl) methanesulfonamide], the inhibition at 1 µM at MAGL [1] was not below 75%; on FAAH it was 0 to 25%. At MAGL [2], this compound showed an IC50 not above 100 nM.

With `CS(=O)(=O)Nc1ccn(C(=O)N2CCC3(CCCN3Cc3cc(Cl)cc(C(F)(F)F)c3)CC2)n1` [Example 198, N-(1-(1-(3-chloro-5-(trifluoromethyl)benzyl)-1,8-diazaspiro[4.5]decane-8-carbonyl)-1H-pyrazol-3-yl) methanesulfonamide], the inhibition at 1 µM on MAGL [1] was not below 75%; at FAAH, 25 to 50%. Besides, the IC50 on MAGL [2] was not above 100 nM.

In the case of `CS(=O)(=O)Nc1ccn(C(=O)N2CCN(Cc3ccc(C(F)(F)F)cc3N3CC4COCC4C3)CC2)n1` (stereo not drawn) [Example 205, N-(1-(4-(2-(tetrahydro-1H-furo[3,4-c]pyrrol-5(3H)-yl)-4-(trifluoromethyl)benzyl)piperazine-1-carbonyl)-1H-pyrazol-3-yl) methanesulfonamide], the inhibition at 1 µM was not below 75% at MAGL [1] and 0 to 25% on FAAH. On MAGL [2], this compound showed a 50% inhibitory concentration (IC50) not above 100 nM.

As to `CS(=O)(=O)Nc1ccn(C(=O)N2CCN(Cc3ccc(C(F)(F)F)cc3N3C4CCC3COC4)CC2)n1` [Example 206, N-(1-(4-(2-(3-oxa-8-azabicyclo[3.2.1]octan-8-yl)-4-(trifluoromethyl)benzyl)piperazine-1-carbonyl)-1H-pyrazol-3-yl) methanesulfonamide], the results for the inhibition at 1 µM at MAGL [1] and on FAAH were not below 75% and 0 to 25%, respectively. On MAGL [2], the IC50 is not above 100 nM.

`CS(=O)(=O)Nc1ccn(C(=O)N2CCN(Cc3ccc(C(F)(F)F)cc3N3C4CCC3CN(S(C)(=O)=O)C4)CC2)n1` [Example 208, N-(1-(4-(2-(3-(methylsulfonyl)-3,8-diazabicyclo[3.2.1]octan-8-yl)-4-(trifluoromethyl)benzyl)piperazine-1-carbonyl)-1H-pyrazol-3-yl) methanesulfonamide]: the inhibition at 1 µM was not below 75% at MAGL [1] and 0 to 25% at FAAH. In addition, on MAGL [2], the IC50 is not above 100 nM.

Turning to `CS(=O)(=O)Nc1ccn(C(=O)N2CCN(Cc3ccc(C(F)(F)F)cc3N3CCC(S(C)(=O)=O)CC3)CC2)n1` [Example 209, N-(1-(4-(2-(4-(methylsulfonyl)piperidin-1-yl)-4-(trifluoromethyl)benzyl)piperazine-1-carbonyl)-1H-pyrazol-3-yl) methanesulfonamide], the inhibition at 1 µM at MAGL [1] is not below 75%; on FAAH, 0 to 25%. For the same compound, the half-maximal inhibitory concentration (IC50) on MAGL [2] was not above 100 nM.

As to `C#Cc1ccc(CN2CCN(C(=O)n3ccc(NC(C)=O)n3)CC2)cc1` [Example 210, N-(1-(4-(4-ethynylbenzyl)piperazine-1-carbonyl)-1H-pyrazol-3-yl) acetamide], the inhibition at 1 µM was not below 75% on MAGL [1] and 0 to 25% on FAAH. In addition, on MAGL [2], the IC50 was not above 100 nM.

As to `CS(=O)(=O)Nc1ccn(C(=O)N2CCN(Cc3ccc(C(F)(F)F)cc3-c3nccs3)CC2)n1` [Example 211, N-(1-(4-(2-(thiazol-2-yl)-4-(trifluoromethyl)benzyl)piperazine-1-carbonyl)-1H-pyrazol-3-yl) methanesulfonamide], the inhibition at 1 µM was not below 75% on MAGL [1] and 0 to 25% at FAAH. Moreover, the IC50 on MAGL [2] is not above 100 nM.

With `CS(=O)(=O)Nc1ccn(C(=O)N2CCN(Cc3ccc(C(F)(F)F)cc3-c3ccc(C(F)(F)F)nc3)CC2)n1` [Example 212, N-(1-(4-(4-(trifluoromethyl)-2-(6-(trifluoromethyl)pyridin-3-yl)benzyl)piperazine-1-carbonyl)-1H-pyrazol-3-yl) methanesulfonamide], the inhibition at 1 µM at MAGL [1] was not below 75%; at FAAH, 0 to 25%. The same compound gave an IC50 at MAGL [2] of 100 to 1000 nM.

Consider `CS(=O)(=O)Nc1ccn(C(=O)N2CCN(Cc3ccc(C(F)(F)F)cc3-c3ccn(CC(=O)O)n3)CC2)n1` [Example 213, 2-(3-(2-((4-(3-(methylsulfonamido)-1H-pyrazole-1-carbonyl)piperazin-1-yl)methyl)-5-(trifluoromethyl)phenyl)-1H-pyrazol-1-yl)acetic acid], for which the inhibition at 1 µM at MAGL [1] was not below 75%; on FAAH, 0 to 25%. For the same compound, at MAGL [2], the half-maximal inhibitory concentration (IC50) is 100 to 1000 nM.

In the case of `CC(=O)N1CC2CN(c3cc(CN4CCN(C(=O)n5ccc(NS(C)(=O)=O)n5)CC4)ccc3Cl)CC2C1` (stereo not drawn) [Example 215, N-(1-(4-(3-(5-acetylhexahydro-pyrrolo[3,4-c]pyrrol-2(1H)-yl)-4-chlorobenzyl)piperazine-1-carbonyl)-1H-pyrazol-3-yl) methanesulfonamide], the inhibition at 1 µM is not below 75% on MAGL [1] and 0 to 25% on FAAH. The IC50 on MAGL [2] lay within 100 to 1000 nM.

For the compound `CC(=O)N1CCC2(CC1)CCN(c1cc(CN3CCN(C(=O)n4ccc(NS(C)(=O)=O)n4)CC3)ccc1Cl)C2` [Example 216, N-(1-(4-(3-(8-acetyl-2,8-diazaspiro[4.5]decan-2-yl)-4-chlorobenzyl)piperazine-1-carbonyl)-1H-pyrazol-3-yl) methanesulfonamide], the results for the inhibition at 1 µM at MAGL [1] and at FAAH were not below 75% and 0 to 25%, respectively. This compound had an IC50 on MAGL [2] of 100 to 1000 nM.

For the compound `CS(=O)(=O)Nc1ccn(C(=O)N2CCN(Cc3ccc(Cl)cc3N3CCC(F)CC3)CC2)n1` [Example 227, N-(1-(4-(4-chloro-2-(4-fluoropiperidin-1-yl)benzyl)piperazine-1-carbonyl)-1H-pyrazol-3-yl) methanesulfonamide], the inhibition at 1 µM on MAGL [1] was not below 75%; on FAAH it was 0 to 25%. Further, the half-maximal inhibitory concentration (IC50) at MAGL [2] was not above 100 nM.

With `CC(=O)N1CC2(CCN(c3cc(C(F)(F)F)ccc3CN3CCN(C(=O)n4ccc(NS(C)(=O)=O)n4)CC3)CC2)C1` [Example 228, N-(1-(4-(2-(2-acetyl-2,7-diazaspiro[3.5]nonan-7-yl)-4-(trifluoromethyl)benzyl)piperazine-1-carbonyl)-1H-pyrazol-3-yl) methanesulfonamide], the inhibition at 1 µM on MAGL [1] was not below 75%; on FAAH it was 0 to 25%. This compound yielded a half-maximal inhibitory concentration (IC50) on MAGL [2] not above 100 nM.

Consider `CS(=O)(=O)Nc1ccn(C(=O)N2CCN(Cc3ccc(Cl)cc3N3CCC4(CC3)CN(S(C)(=O)=O)C4)CC2)n1` [Example 230, N-(1-(4-(4-chloro-2-(2-(methylsulfonyl)-2,7-diazaspiro[3.5]nonan-7-yl)benzyl)piperazine-1-carbonyl)-1H pyrazol-3-yl) methanesulfonamide], for which the inhibition at 1 µM is not below 75% on MAGL [1] and 0 to 25% on FAAH. The compound also returned a 50% inhibitory concentration (IC50) on MAGL [2] not above 100 nM.
